Data published in patent US6372297B1, “Wood preservative oxathiazines” (Uniroyal Chemical Company, Inc., priority 1993, dated 2002).

What was measured:
[1] = test system: blue-stain fungi and molds; test: Activity against blue-stain fungi and molds on a stick test on vermiculite (paint film); design: key to Surface score of wooden sticks treated with paint formulation, C. cladosporioides / Surface score of wooden sticks treated with paint formulation, P. purpurogenum / Surface score of wooden sticks treated with paint formulation, P. violacea / Surface score of wooden sticks treated with paint formulation, R rubra (y) / Surface score of wooden sticks treated with paint formulation, S. chartarum / Surface score of wooden sticks treated with paint formulation, A. versicolor / Surface score of wooden sticks treated with paint formulation, A. pullulans: 0: No growth; Trace of growth of up to 1% coverage of the test inoculated area; 2: Growth covering between 1 and 10% of the inoculated test area; Growth covering between 10 and 30% of the inoculated test area; 4: Growth covering between 30 and 70% of the inoculated test area; 5: Growth covering more than 70t of the inoculated test area; settings: 12 weeks on vermiculite; for Surface score of wooden sticks treated with paint formulation, R rubra (y): R rubra (yeast)
Procedure: Beech sticks (73×18×2 mm) Fagus sylvatica were painted, allowed to dry, and sterilized by γ-radiation (1.2 mRad). […] The coated sticks prepared above were then dipped in a spore suspension of pure culture of each fungus. Seven sticks each were placed in autoclaved Petri dishes (200 mm in diameter, 30 mm in height) containing 300 ml of vermiculite and 120 ml of water, and incubated for 12 weeks. The surfaces of the sticks were then examined for the growth of fungus and were evaluated according to the following scoring system: 0: No growth 1: […] 2: […] 3: […] 4. […] 5. Growth covering more than 70t of the inoculated test area.

[2] = test system: mixed spore suspension of blue-stain fungus and molds; test: Activity against blue-stain fungi and molds in a mold cabinet test (BS3900: Part G6)
Procedure: Using the methods described in BS3900: Part G6: 1989, British Standard Methods of test for paints, “Assessment of resistance to fungal growth”, representative compounds of this invention were tested for activity against blue-stain fungus and molds in a mold cabinet test. In brief, sticks of Scots pine (Pinus sylvestris) measuring 75×100×10 mm, were painted, allowed to dry, and sterilized by […] (1.2 mRad). […] The sticks were then with each solution. The inoculation consisted of dipping the sticks in a mixed spore suspension, then placing them in a mold chamber and incubating them for 12 weeks. The surfaces were evaluated according the following score system: 0: No growth 1: […] 2: […] 3: […] 4. […] 5. Growth covering more than 70% of the inoculated test area.

[3] = test system: mixed spore suspension: Aureobasidium pullulans, Aspergillus amstelodami, Ceratocystis pilifera, Cladosporium sp., Penicillium sp., Sclerophomas entoxylina …; test: Control of molds and sapstain fungi in mini-board test; design: key to Surface score of treated mini-boards, 3 week incubation, 1500 ppm / Surface score of treated mini-boards, 3 week incubation, 2500 ppm: 0: Free of fungal growth; 1: Traces of fungal growth; 2: Little fungal growth; 3: Moderate fungal growth; 4: Vigorous to maximum growth (all surfaces covered with fungal growth)
Excerpt: Representative compounds of this invention to be tested, were suspended in an aqueous solution containing 7.5% GENAPOL X 080™ (Hoechst-Celanese Corporation), and 20% propylene glycol monomethyl ether, to prepare the test solutions. […]
Deep frozen boards (300×50×10 mm) of freshly felled sapwood of Pinus sylvestrus (mini-boards) were thawed at room temperature. One half of each mini-board was immersed in a test solution for 20 seconds. The mini-boards were then sprayed with mixed spore suspension containing the following fungi:
Sclerophomas entoxylina, and
and stored in incubation boxes at 25° C. and at 100% relative humidity, for three weeks. For each compound tested, each concentration of test solution was applied to five different mini-boards.
The efficacy of the test compounds was determined by comparing the fungal growth on both the treated and untreated parts of the mini-boards.
The degree of infection was scored according to the following scale:
1=Traces of fungal growth
4=Vigorous to maximum growth (all surfaces covered with fungal growth)

With `[O-][S+]1CCON=C1c1ccc(Br)s1` (stereo not drawn) [Compound 36] as the compound, how does the “Surface score of wooden sticks treated with paint formulation, A. pullulans” value ([1]; 0.15% a.i. in paint) read?
The value was 0.

What about the “Surface score of wooden sticks treated with paint formulation, A. pullulans” value ([1]; 0.3% a.i. in paint) of the same compound?
The value was 0.

What about the “Surface score of wooden sticks treated with paint formulation, A. versicolor” value ([1]; 0.15% a.i. in paint) of the same compound?
Its value is 0.

And the “Surface score of wooden sticks treated with paint formulation, A. versicolor” value ([1]; 0.3% a.i. in paint)?
Its value is 0.

What about the “Surface score of wooden sticks treated with paint formulation, C. cladosporioides” value ([1]; 0.15% a.i. in paint) of the same compound?
The value was 0.

And the “Surface score of wooden sticks treated with paint formulation, C. cladosporioides” value ([1]; 0.3% a.i. in paint)?
The value was 0.

What about the “Surface score of wooden sticks treated with paint formulation, P. purpurogenum” value ([1]; 0.15% a.i. in paint) of the same compound?
The value was 1 (Trace of growth of up to 1% coverage of the test inoculated area).

What about the “Surface score of wooden sticks treated with paint formulation, P. purpurogenum” value ([1]; 0.3% a.i. in paint) of the same compound?
The value was 1 (Trace of growth of up to 1% coverage of the test inoculated area).

What about the “Surface score of wooden sticks treated with paint formulation, P. violacea” value ([1]; 0.15% a.i. in paint) of the same compound?
The value was 3 (Growth covering between 10 and 30% of the inoculated test area).

What about the “Surface score of wooden sticks treated with paint formulation, P. violacea” value ([1]; 0.3% a.i. in paint) of the same compound?
The value was 1 (Trace of growth of up to 1% coverage of the test inoculated area).

What about the “Surface score of wooden sticks treated with paint formulation, R rubra (y)” value ([1]; 0.15% a.i. in paint) of the same compound?
The value was 0.

And the “Surface score of wooden sticks treated with paint formulation, R rubra (y)” value ([1]; 0.3% a.i. in paint)?
The value was 0.

What about the “Surface score of wooden sticks treated with paint formulation, S. chartarum” value ([1]; 0.15% a.i. in paint) of the same compound?
The value was 0.

And the “Surface score of wooden sticks treated with paint formulation, S. chartarum” value ([1]; 0.3% a.i. in paint)?
Its value is 0.

And the “Surface score of wooden sticks treated with paint formulation, U. atrum” value ([1]; 0.15% a.i. in paint)?
Its value is 3 (Growth covering between 10 and 30% of the inoculated test area).

And the “Surface score of wooden sticks treated with paint formulation, U. atrum” value ([1]; 0.3% a.i. in paint)?
The value was 1 (Trace of growth of up to 1% coverage of the test inoculated area).

What about the “Surface score in a paint formulation in a mold cabinet test, 6 weeks” value ([2]; 0.15% in water-based paint) of the same compound?
Its value is 2.5.

What about the “Surface score in a paint formulation in a mold cabinet test, 12 weeks” value ([2]; 0.15% in water-based paint) of the same compound?
Its value is 4.5.

What about the “Surface score in a paint formulation in a mold cabinet test, 6 weeks” value ([2]; 0.3% in water-based paint) of the same compound?
Its value is 2.5.

What about the “Surface score in a paint formulation in a mold cabinet test, 12 weeks” value ([2]; 0.3% in water-based paint) of the same compound?
Its value is 4.0.

And the “Surface score of treated mini-boards, 3 week incubation, 1500 ppm” value ([3]; 1500 ppm, 3 week incubation)?
Its value is 0.2.

What about the “Surface score of treated mini-boards, 6 week incubation, 1500 ppm” value ([3]; 1500 ppm, 6 week incubation) of the same compound?
The value was 2.6.

What about the “Surface score of treated mini-boards, 3 week incubation, 2500 ppm” value ([3]; 2500 ppm, 3 week incubation) of the same compound?
The value was 0.

And the “Surface score of treated mini-boards, 6 week incubation, 2500 ppm” value ([3]; 2500 ppm, 6 week incubation)?
Its value is 1.4.
